Test results: US20190100549A1, “FLAVONOIDE-TYPE COMPOUNDS BEARING AN O-RHAMNOSYL RESIDUE” (Universitaet Hamburg, priority 2016, published 2019)
Several values for one entry are separate records, joined by “and”; a condition that tells them apart may be missing. Identical values can stand only once.

Experiments:
[1] = system: fibronectin; assay: Fibronectin synthesis in NHDF (ELISA); type: cell-based, human; conditions: 10 ng/ml, 72 hours
Method: (§1) Tests were performed with normal human dermal fibroblast cultures at the 8th passage. Cells were grown in DMEM supplemented with glutamine at 2 mM, penicillin at 50 U/mL and streptomycin (50 μg/mL) and 10% of fetal calf serum (FCS) at 37° C. in a 5% CO2 atmosphere.
(§2) Fibroblasts were cultured for 24 hours before the cells were incubated with the test compounds for further 72 hours. After the incubation the culture supernatants were collected in order to measure the released quantities of procollagen I, VEGF, and fibronectin by means of ELISA. Reference test compounds were vitamin C (procollagen I), PMA (VEGF), and TGF-β (fibronectin).

[2] = system: hydrogen peroxide (DHR) in NHEK cells; assay: Protection against UV-induced H2O2 stress in NHEK (DHR probe, flow cytometry); type: cell-based, human; conditions: 180 mJ/cm^2 UVB (2839 mJ/cm^2 UVA); for H2O2 (AU) (DHR GMFI): single values
Method: (§3) Pre-incubated NHEK were incubated with the test compound for 24 h. Then the specific fluorescence probe for the measurement of hydrogen peroxide (DHR) or lipid peroxides (C11-fluor) was added and incubated for 45 min. Irradiation occurred with in H2O2 determination UVB at 180 mJ/cm^2 (+UVA at 2839 mJ/cm^2) or UVB at 240 mJ/cm^2 (+UVA at 3538 mJ/cm^2) in lipid peroxide, respectively, using a SOL500 Sun Simulator lamp. After irradiation the cells were post-incubated for 30 min before flow-cytometry analysis.

[3] = system: lipid peroxides (C11-fluor) in NHEK cells; assay: Protection against UV-induced lipid peroxide in NHEK (C11-fluor probe, flow cytometry); type: cell-based, human; conditions: 50 μM, 240 mJ/cm^2 UVB (3538 mJ/cm^2 UVA)
Method: as §3

[4] = system: PGE2; assay: PGE2 release in stimulated NHEK (ELISA); type: cell-based, human; conditions: Homo sapiens, NHEK; PMA 1 μg/ml; 10^−6 M
Method: NHEK were pre-incubated for 24 h with the test compounds. The medium was replaced with the NHEK culture medium containing the inflammatory inducers (PMA or Poly I:C) and incubated for another 24 hours. Positive and negative controls ran in parallel. At the endpoint the culture supernatants were quantified of secreted IL-8, PGE2 and TNF-α by means of ELISA.

[5] = system: procollagen I; assay: Procollagen I synthesis in NHDF (ELISA); type: cell-based, human; conditions: 20 μg/ml, 72 hours
Method: as §1, §2

[6] = system: STAT3; assay: STAT3 activity in HeLa-STAT3-luc cells stimulated with IFN-γ (luciferase); type: cell-based; conditions: +IFNγ 25 U/ml; for RLU 1 / RLU 2 / RLU 3: HeLa-STAT3-luc cells; for RLU 1: replicate well 1; for RLU 2: replicate well 2; for RLU 3: replicate well 3; for RLU specific: mean minus control; for Mean: mean of triplicate wells; for % Activation: IFNγ alone = 100% activation
Method: HeLa-STAT3-luc cells were stably transfected with the plasmid 4xM67 pTATA TK-Luc. Cells (20×10^3 cells/ml) were seeded 96-well plate the day before the assay. Then the cells were treated with the test substances for 15 min and then stimulated with IFN-γ 25 IU/ml. After 6 h, the cells were washed twice with PBS and lysed in 50 μl lysis buffer containing 25 mM Tris-phosphate (pH 7.8), 8 mM MgCl2, 1 mM DTT, 1% Triton X-100, and 7% glycerol during 15 min at RT in a horizontal shaker. Luciferase activity was measured using GloMax 96 microplate luminometer (Promega) following the instructions of the luciferase assay kit (Promega, Madison, Wis., USA). […] The experiments for each concentration of the test items were done in triplicate wells.

[7] = system: NF-κB; assay: NF-κB activity in NIH3T3-KBF-Luc cells stimulated with TNFα (luciferase); type: cell-based; conditions: for % Activation: TNFα alone = 100
Method: NIH3T3-KBF-Luc cells were stably transfected with the KBF-Luc plasmid (Sancho (2003) Mol Pharmacol 63:429-438), which contains three copies of NF-κB binding site (from major histocompatibility complex promoter), fused to a minimal simian virus 40 promoter driving the luciferase gene. Cells (1×10^4 for NIH3T3-KBF-Luc) were seeded the day before the assay on 96-well plate. Then the cells were treated with the test substances for 15 min and then stimulated with 30 ng/ml of TNFα. After 6 h, the cells were washed twice with PBS and lysed in 50 μl lysis buffer containing 25 mM Tris-phosphate (pH 7.8), 8 mM MgCl2, 1 mM DTT, 1% Triton X-100, and 7% glycerol during 15 min at RT in a horizontal shaker. Luciferase activity was measured using a GloMax 96 microplate luminometer (Promega) following the instructions of the luciferase assay kit (Promega, Madison, Wis., USA). […] The experiments for each concentration of the test items were done in triplicate wells.

[8] = system: HaCaT cells; assay: Glucose uptake (2-NBDG) in HaCaT keratinocytes; type: cell-based; set-up: key to Measure 1 / Measure 2 / Measure 3 / Mean: total green object integrated intensity, GCU×μm2×Well; conditions: +2NBDG 50 μM, 24 h; for Measure 1 / Measure 2 / Measure 3: HaCaT cells, fluorescence; for RFU specific: mean minus control; for Mean: mean of triplicate measurements; for % Glucose uptake: Rosiglitazone 80 μM = 100%
Method: HaCaT cells (5×10^4) were seeded in 96-well black plates and incubated for 24 h. Then, medium was removed and the cells cultivated in OptiMEM, labeled with 50 μM 2-NBDG (2-[N-(7-nitrobenz-2-oxa-1,3-diazol-4-yl) amino]-2-deoxy-D-glucose and treated with the test substances or the positive control, Rosiglitazone, for 24 h. Medium was removed and the wells were carefully washed with PBS and incubated in PBS (100l/well). Finally the fluorescence was measured using the Incucyte FLR software, the data were analyzed by the total green object integrated intensity (GCU×μm2×Well) of the imaging system IncuCyte HD (Essen BioScience). The fluorescence of Rosiglitazone is taken as 100% of glucose uptake, and the glucose uptake was calculated as (% Glucose uptake)=100(T−B)/(R−B), where T (treated) is the fluorescence of test substance-treated cells, B (Basal) is the fluorescence of 2-NBDG cells and […] is the fluorescence of cells treated with Rosiglitazone.

[9] = system: VEGF; assay: VEGF release in NHDF (ELISA); type: cell-based, human; conditions: 1 μg/ml, 72 hours
Method: as §1, §2

With TGF-β the “Fibronectin % Control” value [1] was 181%, the “Fibronectin % Stimulation” value [1] was 81% and the “Fibronectin” value ([1]; single values) was 10870 ng/mL and 11178 ng/mL and 11128 ng/mL.

In the case of `Cc1c(C)c2c(c(C)c1O)CC[C@@](C)(CCC[C@H](C)CCC[C@H](C)CCCC(C)C)O2` [Vit. E], the “H2O2 % irradiated control” value ([2]; 50 μM) is reported as 35%, the “H2O2 (AU) Mean” value ([2]; 50 μM) is reported as 655 AU and the “H2O2 Protection %” value ([2]; 50 μM) is reported as 78%. The “H2O2 (AU) (DHR GMFI)” value ([2]; 50 μM) was 628 AU and 650 AU and 687 AU.

In the case of `COc1ccc(O)c(C(C)(C)C)c1` [BHA], the “H2O2 % irradiated control” value ([2]; 100 μM) is reported as 42%, the “H2O2 (AU) Mean” value ([2]; 100 μM) is reported as 776 AU and the “H2O2 Protection %” value ([2]; 100 μM) is reported as 70%. For the same compound, the “H2O2 (AU) (DHR GMFI)” value ([2]; 100 μM) was 740 AU and 834 AU and 754 AU.

In the case of `Cc1cc(C(C)(C)C)c(O)c(C(C)(C)C)c1` [BHT], the “C11-fluor(AU) Mean (1/GMFI)” value [3] is reported as 3.3E−04 AU, the “lipid peroxide % Irradiated control” value [3] is reported as 72% and the “lipid peroxide Protection %” value [3] is reported as 37%. For the same compound, the “C11-fluor(AU) 1/GMFI” value ([3]; single values) was 3.2E−04 AU and 3.3E−04 AU and 3.5E−04 AU and the “C11-fluor(AU) GMFI” value ([3]; single values) was 3139 AU and 3047 AU and 2877 AU.

Compound `C[C@@H]1C[C@H]2[C@@H]3CCC4=CC(=O)C=C[C@]4(C)[C@@]3(F)[C@@H](O)C[C@]2(C)[C@@]1(O)C(=O)CO` [Dexamethasone, reference compound] has an inhibition at 1 µM [4] of 9%.

For `O=C1O[C@H]([C@@H](O)CO)C(O)=C1O` [Vitamin C], the “Procollagen I % Control” value [5] was 316%, the “Procollagen I % Stimulation” value [5] was 216% and the “Procollagen I Mean” value [5] was 5272 ng/mL. The “Procollagen I” value ([5]; single values) was 4739 ng/mL and 5854 ng/mL and 5225 ng/mL.

With Diosmetin-5-O-α-L-rhamnoside [DR2] the “RLU 1” value ([6]; 25 μM test substance) was 12137 RLU, the “RLU 2” value ([6]; 25 μM test substance) was 10269 RLU and the “RLU 3” value ([6]; 25 μM test substance) was 9275 RLU. For the same compound, the RLU specific ([6]; 25 μM test substance) was 8553 RLU, the Mean ([6]; 25 μM test substance) was 10560 RLU and the “% Activation” value ([6]; 25 μM test substance) was 68.33%. The “RLU 1” value ([6]; 50 μM test substance) was 13005 RLU, the “RLU 2” value ([6]; 50 μM test substance) was 10547 RLU and the “RLU 3” value ([6]; 50 μM test substance) was 10143 RLU. The RLU specific ([6]; 50 μM test substance) was 9224 RLU, the Mean ([6]; 50 μM test substance) was 11232 RLU and the “% Activation” value ([6]; 50 μM test substance) was 73.69%. The “RLU 1” value ([7]; 10 μM + 30 ng/ml TNFα) was 211150 RLU, the “RLU 2” value ([7]; 10 μM + 30 ng/ml TNFα) was 215320 RLU and the “RLU 3” value ([7]; 10 μM + 30 ng/ml TNFα) was 213260 RLU. For the same compound, the “RLU MEAN” value ([7]; 10 μM + 30 ng/ml TNFα) was 213243 RLU, the RLU specific ([7]; 10 μM + 30 ng/ml TNFα) was 189880 RLU and the “% Activation” value ([7]; 10 μM + 30 ng/ml TNFα) was 145.6%. The “RLU 1” value ([7]; 25 μM + 30 ng/ml TNFα) was 245900 RLU, the “RLU 2” value ([7]; 25 μM + 30 ng/ml TNFα) was 241550 RLU and the “RLU 3” value ([7]; 25 μM + 30 ng/ml TNFα) was 234880 RLU. The “RLU MEAN” value ([7]; 25 μM + 30 ng/ml TNFα) was 240777 RLU, the RLU specific ([7]; 25 μM + 30 ng/ml TNFα) was 217413 RLU and the “% Activation” value ([7]; 25 μM + 30 ng/ml TNFα) was 166.7%. For the same compound, the “Measure 1” value ([8]; 25 μM test substance) was 632398, the “Measure 2” value ([8]; 25 μM test substance) was 940240 and the “Measure 3” value ([8]; 25 μM test substance) was 197738. For the same compound, the RFU specific ([8]; 25 μM test substance) was 583811 RFU, the Mean ([8]; 25 μM test substance) was 590125 and the “% Glucose uptake” value ([8]; 25 μM test substance) was 67.2%. The “Measure 1” value ([8]; 50 μM test substance) was 2958363, the “Measure 2” value ([8]; 50 μM test substance) was 1297231 and the “Measure 3” value ([8]; 50 μM test substance) was 2493030. The RFU specific ([8]; 50 μM test substance) was 2243227 RFU, the Mean ([8]; 50 μM test substance) was 2249541 and the “% Glucose uptake” value ([8]; 50 μM test substance) was 258.2%.

`COc1ccc2c(c1)c(CC(=O)O)c(C)n2C(=O)c1ccc(Cl)cc1` [Indomethacin, reference compound] gave an inhibition at 1 µM [4] of 106%.

In the case of `CCCCCCCCCCCCCC(=O)O[C@@H]1[C@@H](C)[C@@]2(O)[C@@H](C=C(CO)C[C@]3(O)C(=O)C(C)=C[C@@H]23)[C@@H]2C(C)(C)[C@]12OC(C)=O` [PMA, reference compound], the “Mean VEGF” value [9] is reported as 148 pg/mL, the “VEGF % Control” value [9] is reported as 205% and the “VEGF % Stimulation” value [9] is reported as 105%. For the same compound, the “VEGF” value ([9]; single values) was 150 pg/mL and 143 pg/mL.
